Measurements as given in patent publication US10294202B2, “Pyrrolidinones as herbicides” (FMC Corporation, priority 2013, dated 2019).

Assays:
[1] = system: nutsedge, yellow; experiment: Test C pre-/postemergence herbicide test; format: in vivo, Cyperus esculentus
Outline: (§1)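 Herbicidal effect was judged by eye 13 to 15 days after treatment in the greenhouse, using a 0–100 scale against controls. Chemicals in a non-phytotoxic solvent with surfactant were sprayed onto planted loam/sand soil or onto plants 2 to 18 cm tall in a peat-based growing medium.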

[2] = system: ducksalad; experiment: Test B flooded paddy test; format: in vivo, Heteranthera limosa; conditions: 250 g ai/ha, Flood; scale of 0 to 100 where 0 is no effect and 100 is complete control
Outline: (§2)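 First, plants reach the 2-leaf stage; next, pots are flooded to 3 cm and compound is delivered into the water; finally, after 13 to 15 greenhouse days at constant depth, injury is graded visually from 0 to 100 against controls.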

[3] = system: sedge, umbrella; experiment: Test B flooded paddy test; format: in vivo, Cyperus difformis; conditions: 250 g ai/ha, Flood; scale of 0 to 100 where 0 is no effect and 100 is complete control
Outline: as §2

[4] = system: ragweed; experiment: Test C pre-/postemergence herbicide test; format: in vivo, Ambrosia elatior
Outline: as §1

[5] = system: giant foxtail; experiment: Test A pre-/postemergence herbicide test; format: in vivo, Setaria faberii; conditions: for Foxtail, Giant plant response rating: Preemergence, visual rating on 0 to 100 scale (0 no effect, 100 complete control)
Outline: (§3)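 Both application timings used compounds in a non-phytotoxic solvent plus surfactant. Pre-emergence: soil sprayed directly after seeding into loam/sand. Post-emergence: foliage of 2–10 cm seedlings (1–2 leaves) sprayed. Injury rated ~10 days later, 0–100.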

[6] = system: wheat (winter wheat); experiment: Test C pre-/postemergence herbicide test; format: in vivo, Triticum aestivum
Outline: as §1

[7] = system: pigweed; experiment: Test A pre-/postemergence herbicide test; format: in vivo, Amaranthus retroflexus; conditions: for Pigweed plant response rating: Preemergence, visual rating on 0 to 100 scale (0 no effect, 100 complete control)
Outline: as §3

[8] = system: wheat; experiment: Test A pre-/postemergence herbicide test; format: in vivo, Triticum aestivum; conditions: for Wheat plant response rating: Preemergence, visual rating on 0 to 100 scale (0 no effect, 100 complete control)
Outline: as §3

[9] = system: oat, wild; experiment: Test C pre-/postemergence herbicide test; format: in vivo, Avena fatua
Outline: as §1

[10] = system: soybean; experiment: Test C pre-/postemergence herbicide test; format: in vivo, Glycine max
Outline: as §1

[11] = Postemergence, 16 g ai/ha, scale 0 to 100 (0 no effect, 100 complete control)
[12] = Postemergence, 31 g ai/ha, scale 0 (no effect) to 100 (complete control)
[13] = Postemergence, 62 g ai/ha, scale 0 to 100 (0 no effect, 100 complete control)
[14] = Postemergence, 125 g ai/ha, scale 0 to 100 (0 no effect, 100 complete control)
[15] = Preemergence, 62 g ai/ha, scale 0 to 100
[16] = Preemergence, 125 g ai/ha, scale 0 to 100 (0 no effect, 100 complete control)
[17] = Preemergence, 16 g ai/ha, scale 0 to 100
[18] = Postemergence, 125 g ai/ha, 0 to 100 scale, 0 no effect, 100 complete control
[19] = Postemergence, 500 g ai/ha, 0 to 100 scale (0 no effect, 100 complete control)
[20] = preemergence, 500 g ai/ha, 0 to 100 scale
[21] = Preemergence, 31 g ai/ha, scale 0 to 100, 0 is no effect and 100 is complete control

## O=C1NCC(c2cc(F)c(F)c(F)c2)C1C(=O)Nc1cccc(F)c1F (stereo not drawn) [Compound 48]
[1]; [11]
  Plant response rating, Nutsedge, Yellow: 0
[1]; [12]
  Plant response rating, Nutsedge, Yellow: 0
[1]; [13]
  Plant response rating, Nutsedge, Yellow: 0
[1]; [14]
  Plant response rating, Nutsedge, Yellow: 0
[1]; [15]
  Plant response rating, Nutsedge, Yellow: 0
[1]; [16]
  Plant response rating, Nutsedge, Yellow: 20
[1]; [17]
  Plant response rating, Nutsedge, Yellow: 0
[2]
  Plant response rating, Ducksalad: 100
[3]
  Plant response rating, Sedge, Umbrella: 60
[4]; [11]
  Plant response rating, Ragweed: 0
[4]; [12]
  Plant response rating, Ragweed: 5
[4]; [13]
  Plant response rating, Ragweed: 5
[4]; [14]
  Plant response rating, Ragweed: 35
[4]; [15]
  Plant response rating, Ragweed: 10
[4]; [16]
  Plant response rating, Ragweed: 10
[4]; [17]
  Plant response rating, Ragweed: 0
[5]; [18]
  Plant response rating, Foxtail, Giant: 80
[5]; [19]
  Plant response rating, Foxtail, Giant: 80
[5]; 125 g ai/ha
  Foxtail, Giant plant response rating: 80
[5]; [20]
  Plant response rating, Foxtail, Giant: 90
[6]; [11]
  Plant response rating, Wheat: 0
[6]; [12]
  Plant response rating, Wheat: 0
[6]; [13]
  Plant response rating, Wheat: 0
[6]; [14]
  Plant response rating, Wheat: 5
[6]; [15]
  Plant response rating, Wheat: 20
[6]; [16]
  Plant response rating, Wheat: 45
[6]; [17]
  Plant response rating, Wheat: 0
[7]; [18]
  Plant response rating, Pigweed: 0
[7]; [19]
  Plant response rating, Pigweed: 0
[7]; 125 g ai/ha
  Pigweed plant response rating: 0
[7]; [20]
  Plant response rating, Pigweed: 0
[8]; [18]
  Plant response rating, Wheat: 20
[8]; [19]
  Plant response rating, Wheat: 40
[8]; 125 g ai/ha
  Wheat plant response rating: 0
[8]; [20]
  Plant response rating, Wheat: 50
[9]; [11]
  Plant response rating, Oat, Wild: 0
[9]; [12]
  Plant response rating, Oat, Wild: 0
[9]; [13]
  Plant response rating, Oat, Wild: 0
[9]; [14]
  Plant response rating, Oat, Wild: 0
[9]; [15]
  Plant response rating, Oat, Wild: 0
[9]; [16]
  Plant response rating, Oat, Wild: 10
[9]; [17]
  Plant response rating, Oat, Wild: 0
[10]; [11]
  Plant response rating, Soybean: 5
[10]; [12]
  Plant response rating, Soybean: 10
[10]; [13]
  Plant response rating, Soybean: 10
[10]; [14]
  Plant response rating, Soybean: 10
[10]; [15]
  Plant response rating, Soybean: 10
[10]; [16]
  Plant response rating, Soybean: 15
[10]; [17]
  Plant response rating, Soybean: 10

## O=C1NCC(c2cccc(OC(F)(F)F)c2)C1C(=O)Nc1ccccc1F (stereo not drawn) [Compound 69]
[1]; [21]
  Nutsedge, Yellow plant response rating: 0
[1]; [16]
  Plant response rating, Nutsedge, Yellow: 0
[1]; Preemergence, 250 g ai/ha
  Plant response rating (scale of 0 to 100), Nutsedge, Yellow: 10
[2]
  Plant response rating, Ducksalad: 85
[3]
  Plant response rating, Sedge, Umbrella: 65
[4]; [21]
  Ragweed plant response rating: 0
[4]; [15]
  Plant response rating, Ragweed: 0
[4]; [16]
  Plant response rating, Ragweed: 0
[4]; Preemergence, 250 g ai/ha
  Plant response rating (scale of 0 to 100), Ragweed: 20
[5]; [18]
  Plant response rating, Foxtail, Giant: 80
[5]; [19]
  Plant response rating, Foxtail, Giant: 80
[5]; 125 g ai/ha
  Foxtail, Giant plant response rating: 90
[5]; [20]
  Plant response rating, Foxtail, Giant: 90
[6]; [21]
  Wheat plant response rating: 0
[6]; [15]
  Plant response rating, Wheat: 0
[6]; [16]
  Plant response rating, Wheat: 5
[6]; Preemergence, 250 g ai/ha
  Plant response rating (scale of 0 to 100), Wheat: 5
[7]; [18]
  Plant response rating, Pigweed: 20
[7]; [19]
  Plant response rating, Pigweed: 30
[7]; 125 g ai/ha
  Pigweed plant response rating: 0
[7]; [20]
  Plant response rating, Pigweed: 20
[8]; [18]
  Plant response rating, Wheat: 0
[8]; [19]
  Plant response rating, Wheat: 40
[8]; 125 g ai/ha
  Wheat plant response rating: 0
[8]; [20]
  Plant response rating, Wheat: 20
[9]; [15]
  Plant response rating, Oat, Wild: 0
[9]; [16]
  Plant response rating, Oat, Wild: 5
[9]; Preemergence, 250 g ai/ha
  Plant response rating (scale of 0 to 100), Oat, Wild: 5
[10]; [21]
  Soybean plant response rating: 0
[10]; [15]
  Plant response rating, Soybean: 0
[10]; [16]
  Plant response rating, Soybean: 0
[10]; Preemergence, 250 g ai/ha
  Plant response rating (scale of 0 to 100), Soybean: 0
